Source: US20200077658A1, “Pesticidal Compounds” (BASF SE, priority 2016, published 2020)

Tests used:
Assay type in all cases: in vivo
[1] = tested on: Southern Armyworm (Spodoptera eridania), 2nd Instar Larvae; test: Action on southern armyworm (Spodoptera eridania), 2nd instar larvae, sprayed lima bean plants; conditions: 96 h, 2nd instar larvae on lima bean, 4 days after treatment, read-out: mortality in comparison with untreated controls
Procedure: The active compounds were formulated by a Tecan liquid handler in 100% cyclohexanone as a 10,000 ppm solution supplied in tubes. The 10,000 ppm solution was serially diluted in 100% cyclohexanone to make interim solutions. These served as stock solutions for which final dilutions were made by the Tecan in 50% acetone:50% water (v/v) into 10 or 20 ml glass vials. A nonionic surfactant (Kinetic®) was included in the solution at a volume of 0.01% (v/v). The vials were then inserted into an automated electrostatic sprayer equipped with an atomizing nozzle for application to plants/insects.
Lima bean plants (variety Sieva) were grown 2 plants to a pot and selected for treatment at the 1st true leaf stage. Test solutions were sprayed onto the foliage by an automated electrostatic plant sprayer equipped with an atomizing spray nozzle. The plants were dried in the sprayer fume hood and then removed from the sprayer. Each pot was placed into perforated plastic bags with a zip closure. About 10 to 11 armyworm larvae were placed into the bag and the bags zipped closed. Test plants were maintained in a growth room at about 250C and about 20-40% relative humidity for 4 days, avoiding direct exposure to fluorescent light (24 hour photoperiod) to prevent trapping of heat inside the bags. Mortality and reduced feeding were assessed 4 days after treatment, compared to untreated control plants.

[2] = tested on: tobacco budworm (Heliothis virescens); test: Action on tobacco budworm (Heliothis virescens), 96-well microtiter plate diet test; conditions: 120 h, egg and larval mortality after 5 days, read-out: mortality in comparison with untreated controls
Procedure: For evaluating control of tobacco budworm (Helliothis virescens) the test unit consisted of 96-well-microtiter plates containing an insect diet and 15-25 H. virescens eggs.
The compounds were formulated using a solution containing 75% v/v water and 25% v/v DMSO. Different concentrations of formulated compounds were sprayed onto the insect diet at 10 μl, using a custom built micro atomizer, at two replications.
After application, microtiter plates were incubated at about 28±1° C. and about 80±5% relative humidity for 5 days. Egg and larval mortality was then visually assessed.

[3] = tested on: Orchid thrips (Dichromothrips corbetti); test: Action on orchid thrips (Dichromothrips corbetti), floral-immersion technique; conditions: adult thrips, mortality 72 hours after treatment, read-out: mortality in comparison with untreated controls
Procedure: Dichromothrips corbetti adults used for bioassay were obtained from a colony maintained continuously under laboratory conditions. For testing purposes, the test compound is diluted in a 1:1 mixture of acetone:water (vol:vol), plus Kinetic® HV at a rate of 0.01% v/v.
Thrips potency of each compound was evaluated by using a floral-immersion technique. All petals of individual, intact orchid flowers were dipped into treatment solution and allowed to dry in Petri dishes. Treated petals were placed into individual re-sealable plastic along with about 20 adult thrips. All test arenas were held under continuous light and a temperature of about 28° C. for duration of the assay. After 3 days, the numbers of live thrips were counted on each petal. The percent mortality was recorded 72 hours after treatment.

[4] = tested on: yellow fever mosquito (Aedes aegypti); test: whole plant or invertebrate; conditions: 48 h, larval mortality visually assessed after 2 days, read-out: mortality in comparison with untreated controls
Procedure: For evaluating control of yellow fever mosquito (Aedes aegypti) the test unit consisted of 96-well-microtiter plates containing 200 μl of tap water per well and 5-15 freshly hatched A. aegypti larvae.
The active compounds were formulated using a solution containing 75% (v/v) water and 25% (v/v) DMSO. Different concentrations of formulated compounds or mixtures were sprayed onto the insect diet at 2.5 μl, using a custom built micro atomizer, at two replications.
After application, microtiter plates were incubated at 28±1° C., 80±5% RH for 2 days. Larval mortality was then visually assessed.

[5] = tested on: Diamond Back Moth (Plutella xylostella); test: Action on diamond back moth (Plutella xylostella), cabbage leaf dip; conditions: foliar, 3rd instar larvae on dipped cabbage leaves, 72 hours after treatment, read-out: mortality in comparison with untreated controls
Procedure: The active compound is dissolved at the desired concentration in a mixture of 1:1 (vol:vol) distilled water:acetone. Surfactant (Kinetic® HV) is added at a rate of 0.01% (vol/vol).The test solution is prepared at the day of use.
Leaves of cabbage were dipped in test solution and air-dried. Treated leaves were placed in petri dishes lined with moist filter paper and inoculated with ten 3rd instar larvae. Mortality was recorded 72 hours after treatment. Feeding damages were also recorded using a scale of 0-100%.

[6] = tested on: boll weevil (Anthonomus grandis); test: Action on boll weevil (Anthonomus grandis), 96-well microtiter plate diet test; conditions: 120 h, egg and larval mortality after 5 days, read-out: mortality in comparison with untreated controls
Procedure: For evaluating control of boll weevil (Anthonomus grandis) the test unit consisted of 96-well-microtiter plates containing an insect diet and 5-10 A. grandis eggs.
The compounds were formulated using a solution containing 75% v/v water and 25% v/v DMSO. Different concentrations of formulated compounds were sprayed onto the insect diet at 5 μl, using a custom built micro atomizer, at two replications.
After application, microtiter plates were incubated at about 25±1° C. and about 75±5% relative humidity for 5 days. Egg and larval mortality was then visually assessed.

[7] = tested on: Silverleaf Whitefly (Bemisia argentifoli) (Adults); test: Action on silverleaf whitefly (Bemisia argentifoli) adults, sprayed cotton plants; conditions: Bemisia argentifolii, 72 h, 3 days after treatment, read-out: mortality in comparison with untreated controls
Procedure: The active compounds were formulated by a Tecan liquid handler in 100% cyclohexanone as a 10,000 ppm solution supplied in tubes. The 10,000 ppm solution was serially diluted in 100% cyclohexanone to make interim solutions. These served as stock solutions for which final dilutions were made by the Tecan in 50% acetone:50% water (v/v) into 5 or 10 ml glass vials. A nonionic surfactant (Kinetic®) was included in the solution at a volume of 0.01% (v/v). The vials were then inserted into an automated electrostatic sprayer equipped with an atomizing nozzle for application to plants/insects.
Cotton plants at the cotyledon stage (one plant per pot) were sprayed by an automated electrostatic plant sprayer equipped with an atomizing spray nozzle. The plants were dried in the sprayer fume hood and then removed from the sprayer. Each pot was placed into a plastic cup and about 10 to 12 whitefly adults (approximately 3-5 days old) were introduced. The insects were collected using an aspirator and a nontoxic Tygon® tubing connected to a barrier pipette tip. The tip, containing the collected insects, was then gently inserted into the soil containing the treated plant, allowing insects to crawl out of the tip to reach the foliage for feeding. Cups were covered with a reusable screened lid. Test plants were maintained in a growth room at about […] and about 20-40% relative humidity for 3 days, avoiding direct exposure to fluorescent light (24 hour photoperiod) to prevent trapping of heat inside the cup. Mortality was assessed 3 days after treatment, compared to untreated control plants.

CC(/C=N/N=C1\SCC(=O)N1c1ccccc1C(C)C)=C\c1cnc(N(C)c2ccc(OC(F)(F)F)cc2)nc1C [Compound C-17, (2Z)-3-(2-isopropylphenyl)-2-[(E)-[(E)-2-methyl-3-[4-methyl-2-[N-methyl-4-(trifluoromethoxy)anilino]pyrimidin-5-yl]prop-2-enylidene]hydrazono]thiazolidin-4-one]
≥ 75%: mortality at 300 ppm [1] | mortality at 800 ppm [2] | mortality at 500 ppm [3] | mortality at 800 ppm [4] | mortality at 500 ppm [5] | mortality at 800 ppm [6] | mortality at 300 ppm [7]

CC(/C=N/NC(=S)Nc1ccccc1C(C)C)=C\c1cnc(N(C)c2ccc(OC(F)(F)F)cc2)nc1C [Compound C-16, 1-(2-isopropylphenyl)-3-[(E)-[(E)-2-methyl-3-[4-methyl-2-[N-methyl-4-(trifluoromethoxy)anilino]pyrimidin-5-yl]prop-2-enylidene]amino]thiourea]
≥ 75%: mortality at 300 ppm [1] | mortality at 800 ppm [2] | mortality at 500 ppm [3] | mortality at 800 ppm [4] | mortality at 500 ppm [5] | mortality at 800 ppm [6] | mortality at 300 ppm [7]

CC(/C=N/N=C1\SCC(=O)N1c1ccccc1C(C)C)=C\c1cnc(N(C)c2ccc(OC(F)(F)F)cc2)nc1 [Compound C-7, (2Z)-3-(2-isopropylphenyl)-2-[(E)-[(E)-2-methyl-3-[2-[N-methyl-4-(trifluoromethoxy)anilino]pyrimidin-5-yl]prop-2-enylidene]hydrazono]thiazolidin-4-one]
≥ 75%: mortality at 300 ppm [1] | mortality at 800 ppm [2] | mortality at 500 ppm [3] | mortality at 800 ppm [4] | mortality at 500 ppm [5] | mortality at 800 ppm [6] | mortality at 300 ppm [7]
